Columns and labels:
[1] = target: T1, human LTA4 hydrolase (Homo sapiens, UniProt P09960); experiment: LTA4H Enzyme assay (peptidase, Arg-AMC cleavage); assay type: biochemical; details: LTA4H enzyme 1 nM, Arg-AMC substrate 50 μM, room temperature 1 h, fluorescence 380/460 nm
T1 sequence (P09960 1-611): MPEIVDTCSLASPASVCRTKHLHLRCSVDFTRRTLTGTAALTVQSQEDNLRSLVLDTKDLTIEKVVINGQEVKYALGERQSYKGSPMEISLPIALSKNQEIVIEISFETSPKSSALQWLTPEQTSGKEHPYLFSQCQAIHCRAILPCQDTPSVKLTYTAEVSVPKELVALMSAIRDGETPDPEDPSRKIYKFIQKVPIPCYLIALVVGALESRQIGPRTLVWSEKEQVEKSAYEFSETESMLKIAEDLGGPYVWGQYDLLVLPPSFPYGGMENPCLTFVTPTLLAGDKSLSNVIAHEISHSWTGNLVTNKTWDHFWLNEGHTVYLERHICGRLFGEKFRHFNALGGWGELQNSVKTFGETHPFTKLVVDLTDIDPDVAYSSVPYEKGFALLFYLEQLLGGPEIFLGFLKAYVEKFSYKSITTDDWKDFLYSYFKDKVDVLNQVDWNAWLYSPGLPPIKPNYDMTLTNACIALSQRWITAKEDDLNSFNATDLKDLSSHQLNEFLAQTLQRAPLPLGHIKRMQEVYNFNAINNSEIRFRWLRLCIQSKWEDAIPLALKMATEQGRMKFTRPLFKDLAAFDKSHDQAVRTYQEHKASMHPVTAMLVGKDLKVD
In short: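 Human LTA4H (1 nM final) incubated with compound and Arg-AMC (50 μM final) in 50 mM Tris-HCl pH 7.5, 100 mM KCl, 0.5% BSA, 1 h at room temperature. Product read as AMC fluorescence (ex 380/em 460 nm); IC50 reported.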

[2] = system: LTB4 synthesis in human whole blood; experiment: human whole blood (HWB) assay, inhibition of LTB4 production; assay type: cell-based; details: heparinized human whole blood, calcimycin 20 μM stimulation, plasma LTB4
In short: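 Heparinized human whole blood preincubated with compound 15 min at 37 °C, then stimulated with 20 μM (final) calcimycin for 30 min at 37 °C. Plasma LTB4 measured by antibody-based HTRF; IC50 reported.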

| Compound | IC50 [1] | IC50 [2] |
| --- | --- | --- |
| c1cc(-c2ccc(Oc3ccc4nn(CCNCC5CCOCC5)cc4c3)cc2)[nH]n1 [Example 206, (2-{5-[4-(2H-Pyrazol-3-yl)-phenoxy]-indazol-2-yl}-ethyl)-(tetrahydro-pyran-4-ylmethyl)-amine] | 0.42 nM | 210 nM |
| c1cc(-c2ccc(Oc3ccc4[nH]c(C[C@@H]5CCCN5)nc4c3)cc2)[nH]n1 [Example 207, 5-[4-(2H-Pyrazol-3-yl)-phenoxy]-2-(S)-1-pyrrolidin-2-ylmethyl-1H-benzoimidazole] | 0.17 nM | 220 nM |
| CO[C@H]1CCN(Cc2ccc3cc(Oc4ccc(-c5ccn[nH]5)cn4)ccc3n2)C1 [Example 208, 2-((S)-3-Methoxy-pyrrolidin-1-ylmethyl)-6-[5-(2H-pyrazol-3-yl)-pyridin-2-yloxy]-quinoline] | 1.2 nM | 220 nM |
| O=C1CCCCN1C1CCN(Cc2ccc3cc(Oc4ccc(-c5ccn[nH]5)cn4)ccc3n2)CC1 [Example 209, 1′-{6-[5-(2H-Pyrazol-3-yl)-pyridin-2-yloxy]-quinolin-2-ylmethyl}-[1,4′]bipiperidinyl-2-one] | 0.66 nM | 220 nM |
| O[C@H]1CCN(Cc2ccc3cc(Oc4ccc(-c5ccn[nH]5)cn4)ccc3n2)C1 [Example 210, (S)-1-{6-[5-(2H-Pyrazol-3-yl)-pyridin-2-yloxy]-quinolin-2-ylmethyl}-pyrrolidin-3-ol] | 0.82 nM | 230 nM |
| O=C1COCCN1C1CCN(Cc2ccc3cc(Oc4ccc(-c5ccn[nH]5)cn4)ccc3n2)CC1 [Example 211, 4-(1-{6-[5-(2H-Pyrazol-3-yl)-pyridin-2-yloxy]-quinolin-2-ylmethyl}-piperidin-4-yl)-morpholin-3-one] | 0.8 nM | 230 nM |
| COC1CCN(Cc2ccc3cc(Oc4ccc(-c5ccn[nH]5)cn4)ccc3n2)CC1 [Example 212, 2-(4-Methoxy-piperidin-1-ylmethyl)-6-[5-(2H-pyrazol-3-yl)-pyridin-2-yloxy]-quinoline] | 1.2 nM | 250 nM |
| O=c1cccc2n1C[C@H]1C[C@@H]2CN(Cc2ccc3cc(Oc4ccc(-c5ccn[nH]5)cn4)ccc3n2)C1 [Example 213, (1R,5S)-3-{6-[5-(2H-Pyrazol-3-yl)-pyridin-2-yloxy]-quinolin-2-ylmethyl}-1,2,3,4,5,6-hexahydro-1,5-methano-pyrido[1,2-a][1,5]diazocin-8-one] | 0.77 nM | 390 nM |
| c1cc(-c2ccc(Oc3ccc4nc(CNCCC5CCOCC5)ccc4c3)nc2)[nH]n1 [Example 214, {6-[5-(2H-Pyrazol-3-yl)-pyridin-2-yloxy]-quinolin-2-ylmethyl}-[2-(tetrahydro-pyran-4-yl)-ethyl]-amine] | 2.5 nM | 400 nM |
| c1ccc(OC2CCN(Cc3ccc4cc(Oc5ccc(-c6ccn[nH]6)cn5)ccc4n3)CC2)nc1 [Example 215, 6-[5-(2H-Pyrazol-3-yl)-pyridin-2-yloxy]-2-[4-(pyridin-2-yloxy)-piperidin-1-ylmethyl]-quinoline] | 5 nM | 680 nM |
| OC1CN(Cc2ccc3c(ccn3Cc3ccc(-c4ccn[nH]4)cc3)c2)C1 [Example 216, 1-{1-[4-(2H-Pyrazol-3-yl)-benzyl]-1H-indol-5-ylmethyl}-azetidin-3-ol] | 0.2 nM | 110 nM |
| c1cc(-c2ccc(Oc3ccc4nn(CCN5CCCC5)cc4c3)cc2)[nH]n1 [Example 217, 5-[4-(2H-Pyrazol-3-yl)-phenoxy]-2-(2-pyrrolidin-1-yl-ethyl)-2H-indazole] | 0.12 nM | 81 nM |
| c1cc(-c2ccc(Oc3ccc4c(c3)OC(CN3CCCC3)C4)cc2)[nH]n1 (stereo not shown) [Example 218, 5-[4-(2-Pyrrolidin-1-ylmethyl-2,3-dihydro-benzofuran-6-yloxy)-phenyl]-1H-pyrazole] | 0.097 nM | 110 nM |
| CC(=O)NC1CCN(CC2Cc3ccc(Oc4ccc(-c5ccn[nH]5)cc4)cc3O2)CC1 (stereo not shown) [Example 219, N-(1-[6-[4-(2H-Pyrazol-3-yl)-phenoxy]-2,3-dihydro-benzofuran-2-ylmethyl]-piperidin-4-yl)-acetamide] | 0.22 nM | 110 nM |
